Source: article PMC11184370 (RSC Advances, 2024)
Where two headings read alike, the source gives them in different places.

Columns and labels:
[1] = tested on: ctDNA; test: UV-visible absorption titration with ctDNA; assay type: binding, calf thymus; details: Tris–HCl buffer pH 7.2
[2] = tested on: tRNA; test: UV-visible absorption titration with tRNA; assay type: binding, yeast; details: Tris–HCl buffer pH 7.2
[3] = tested on: ctDNA; test: Ethidium bromide displacement, fluorescence quenching of EB-ctDNA adduct; assay type: binding, calf thymus; details: λem = 580 nm; for Quenching constant (Ksv), emission spectroscopy, ctDNA: EB 5 μM, DNA 50 μM, [Q] 10–200 μM
[4] = tested on: tRNA; test: Ethidium bromide displacement, fluorescence quenching of EB-tRNA adduct; assay type: binding, yeast; details: λem = 580 nm; for Quenching constant (Ksv), emission spectroscopy, tRNA: EB 5 μM, RNA 50 μM, [Q] 10–200 μM
[5] = biological target: T1, Bovine serum albumin (BSA) (Bos taurus, UniProt P02769); test: BSA absorption titration; assay type: binding; details: λmax = 278 nm
[6] = biological target: T1, Bovine serum albumin (BSA); test: BSA fluorescence quenching; assay type: binding; details: λmax = 345 nm; for Quenching rate constant (Kq), BSA emission: τ0 = 10^−8 s
[7] = tested on: WI38 normal lung fibroblast cells; test: MTT in vitro cytotoxicity, WI38; assay type: cell-based, human; details: read-out: In vitro cytotoxicity IC50, WI38
[8] = tested on: HeLa cervical carcinoma cells; test: MTT in vitro cytotoxicity, HeLa; assay type: cell-based, human; details: for Selective index (SI), HeLa: vs WI38; for IC50: read-out: In vitro cytotoxicity IC50, HeLa
[9] = tested on: MCF7 breast carcinoma cells; test: MTT in vitro cytotoxicity, MCF7; assay type: cell-based, human; details: for Selective index (SI), MCF7: vs WI38; for IC50: read-out: In vitro cytotoxicity IC50, MCF7
[10] = Solution stability by UV-visible spectroscopy in PBS; assay type: physicochemical; details: PBS pH 7.2 / DMSO, 2.5 × 10^−5 M, up to 48 h
[11] = tested on: HeLa cervical carcinoma cells; details: read-out: In vitro cytotoxicity IC50, HeLa; 48 h ref [85]; cited from earlier work
[12] = tested on: MCF7 breast carcinoma cells; details: read-out: In vitro cytotoxicity IC50, MCF7; 24 h ref [84]; cited from earlier work
[13] = tested on: HeLa cells; test: Cell cycle distribution by flow cytometry; assay type: cell-based, human; details: IC50 concentration, 24 h, control 20.3%
[14] = tested on: HeLa cells; test: Annexin V/propidium iodide flow cytometry; assay type: cell-based, human; details: IC50, 24 h

T1 sequence (P02769 25-607): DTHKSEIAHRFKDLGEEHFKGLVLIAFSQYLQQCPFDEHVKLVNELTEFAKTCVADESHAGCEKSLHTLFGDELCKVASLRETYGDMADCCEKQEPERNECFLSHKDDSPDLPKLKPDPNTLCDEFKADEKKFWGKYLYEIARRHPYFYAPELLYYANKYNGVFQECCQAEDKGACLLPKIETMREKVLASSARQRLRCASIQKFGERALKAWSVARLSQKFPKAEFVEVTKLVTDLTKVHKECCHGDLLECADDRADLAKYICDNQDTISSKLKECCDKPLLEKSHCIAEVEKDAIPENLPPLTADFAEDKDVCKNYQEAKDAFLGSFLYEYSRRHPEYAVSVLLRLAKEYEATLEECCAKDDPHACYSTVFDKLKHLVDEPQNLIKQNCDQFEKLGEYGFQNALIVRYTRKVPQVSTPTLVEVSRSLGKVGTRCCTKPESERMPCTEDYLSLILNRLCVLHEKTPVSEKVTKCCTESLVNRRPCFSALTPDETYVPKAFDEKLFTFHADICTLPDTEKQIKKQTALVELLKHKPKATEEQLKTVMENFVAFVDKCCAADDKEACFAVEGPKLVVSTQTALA

| Molecule | % H* (hypochromism), absorption spectroscopy, ctDNA [1] [%] | % H* (hypochromism), absorption spectroscopy, tRNA [2] [%] | % H, emission spectroscopy, ctDNA [3] [%] | Quenching constant (Ksv), emission spectroscopy, ctDNA [3] | % H, emission spectroscopy, tRNA [4] [%] | Quenching constant (Ksv), emission spectroscopy, tRNA [4] | % hyper (hyperchromism), BSA absorption spectroscopy [5] [%] | % hypo, BSA emission spectroscopy [6] [%] | Number of binding sites (n), BSA emission [6] | Stern–Volmer quenching constant (Ksv), BSA emission [6] | Quenching rate constant (Kq), BSA emission [6] [M⁻¹ s⁻¹] | IC50 ([7]; 24 h) [µM] | IC50 ([7]; 48 h) [µM] | Selective index (SI), HeLa ([8]; 24 h) | Selective index (SI), HeLa ([8]; 48 h) | IC50 ([8]; 24 h) [µM] | IC50 ([8]; 48 h) [µM] | Selective index (SI), MCF7 ([9]; 24 h) | IC50 ([9]; 24 h) [µM] | IC50 ([9]; 48 h) [µM] | further results |
| --- | --- | --- | --- | --- | --- | --- | --- | --- | --- | --- | --- | --- | --- | --- | --- | --- | --- | --- | --- | --- | --- |
| 3-acetylcoumarin benzoylhydrazone [HL] | 8.35 | 7.20 | 32.4 | 0.34 ×10^4 | 26.1 | 1.19 ×10^4 | 39.03 | 27.18 | 0.93 | 2.33 × 10^4 | 2.33e+12 | 71.1 ± 3.4 | 75 ± 3.5 | 1.15 | 1.57 | 61.6 ± 3.1 | 47.6 ± 2.9 | 1.74 | 40.8 ± 2.6 | 36.8 ± 2.4 | Selective index (SI), MCF7 ([9]; 48 h): 2.03; Solution stability (changes of UV-visible spectrum with time) [10]: insignificant changes up to the first 3 h then suffered hydrolysis in the aqueous media through the next 24 h |
| N.N.[Cl][Pt][Cl] [Cisplatin, cis-platin] | – | – | – | – | – | – | – | – | – | – | – | – | – | – | – | – | – | – | – | – | IC50 [11]: 67.6 ± 2 µM; IC50 [12]: 31.2 ± 1.8 µM |
| [Ag(HL)2]NO3 [Complex C3] | 6.81 | 6.66 | 50.1 | 0.52 ×10^4 | 26.9 | 1.6 ×10^4 | 40.74 | 35.69 | 0.92 | 4.98 × 10^4 | 4.98e+12 | 75.4 ± 3.6 | 63.6 ± 3.3 | 1.93 | 1.95 | 39.1 ± 2.5 | 32.5 ± 2.3 | 1.28 | 58.8 ± 2.9 | 54 ± 3 | Solution stability (changes of UV-visible spectrum with time) [10]: slight decrease in absorption intensity |
| [Pt(HL)Cl]Cl [Complex C2] | 10.4 | 7.60 | 54.2 | 1.42 ×10^4 | 48.8 | 4.51 ×10^4 | 11.90 | 42.63 | 1.03 | 5.39 × 10^4 | 5.39e+12 | 29.5 ± 2.2 | 31.3 ± 2.2 | 3.63 | 4.95 | 8.12 ± 0.7 | 6.31 ± 0.4 | 2.39 | 12.3 ± 0.9 | 8.61 ± 0.6 | Selective index (SI), MCF7 ([9]; 48 h): 3.63; Cells in G2/M phase [13]: 20.3%; Change of necrotic cells compared to untreated HeLa cells [14]: 1.6 fold; Solution stability (changes of UV-visible spectrum with time) [10]: insignificant changes during the 48 h test |
